Patent publication US12643867B2, “Compositions and uses thereof” (University of Virginia Patent Foundation, priority 2017, dated 2026)

Target: T1, DGKZ (Diacylglycerol kinase zeta) (Homo sapiens, UniProt Q13574)
T1 construct: expressed in transfected cells; host or cells: SILAC HEK293T
Assay: SILAC LC-MS ATP acyl phosphate probe competition, recombinant DGK-HEK293T lysates
Type: binding
Settings: ATP 1 mM, Ketanserin, Ritanserin 100 μM, RF001 1 mM; for SILAC ratio, DGKZ C1 probe-modified peptide: site C1 (K323); for SILAC ratio, DGKZ DAGKa probe-modified peptide: site DAGKa (K662); for SILAC ratio, DGKZ DAGKc probe-modified peptide: site DAGKc (K500)
Excerpt: Recombinant DGK proteins were produced by transient transfection of HEK293T cells with recombinant DNA. pDONR223-DGKK was a gift from William Hahn & David Root (Addgene plasmid #23487). pCSF107mT-GATEWAY-3′-FLAG was a gift from Todd Stukenberg (Addgene plasmid #67619). pCSF107mT-DGKK-FLAG construct was generated by recombination of the Addgene plasmids using the Gateway cloning system (Invitrogen). All other vectors were gifted to Dr. Kevin Lynch (University of Virginia, School of Medicine) by Dr. Kaoru Goto (Yamagata University, School of Medicine) and Dr. Fumio Sakane (Chiba University) and were kindly shared with us: pcDNA3-FLAG-DGKA (rat), pCMV-Tag2B-FLAG-DGKQ (human), pcDNA3-DGKE-3×Flag (human), and pCMV-SPORT6-HA-DGKZ (human). HEK293T cells were plated at a concentration of 400,000 cells in complete DMEM and grown to 50-60% confluency. A polyethyleneimine (PEI) stock solution was prepared (1 mg/mL, pH 7.4) and filter sterilized. Serum-free DMEM (600 μL) was mixed gently with 2.6 μg DNA and 20 μL of sterile PEI (1 mg/mL, pH 7.4) in a sterile microfuge tube. Mixtures were incubated for 30 min at 25° C. The mixture was then added drop-wise to each 10 cm^2 plate, rocked back and forth to mix, and placed back in the incubator. Cell pellets were harvested after two full days of growth, snap-frozen in liquid N2, and stored at −80° C. until use. Recombinant proteins were produced by transient transfection in SILAC HEK293T cells using the procedure described above, except that cells were plated at a concentration of 1×10^6 cells per 10 cm^2 plate and grown to ˜70% confluency prior to introducing transfection mixture.
Proteomes were diluted to 2 mg/ml in kinase buffer. The light and heavy proteomes (0.5 mg, 250 μL total reaction volume) were pre-treated with vehicle or compound, respectively (5 μL, DMSO (light) or 50× stock in DMSO (heavy)), mixed gently, and incubated at 25° C. for 30 min. […] After incubation, matched light and heavy proteomes were transferred and mixed in a 1:1 ratio in a two-dram vial containing 4:1:3 MeOH/CHCl3/H2O (2 mL MeOH, 500 AL CHCl3, 1.5 mL H2O) for extraction of proteins to remove excess probe, quickly vortexed, and centrifuged at 1,400×g for 3 min to pellet protein. Organic and aqueous layers were removed using a Pasteur pipette, and the protein pellet was transferred to a screw-top tube in 600 μL MeOH. A second extraction was performed by adding CHCl3 (150 μL) and H2O (600 μL) to each sample, vortexed, and centrifuged at 1,400×g for 3 min to pellet protein. Organic and aqueous layers were removed by pipetting. MeOH added to pellet (600 μL) and pellets were re-suspended by sonication (3×1 sec pulse, 20% amplitude) for a final extraction. Samples were then centrifuged at 17,000×g for 5 min to pellet protein and MeOH was removed by pipetting. The pellets were re-suspended in 10 M urea/25 mM ammonium bicarbonate ([…]), brought to a final volume of 1 mL with 25 mM ammonium bicarbonate, reduced with 10 mM DTT for 15 min at 65° C. allowed to cool, and then alkylated with 40 mM iodoacetamide for 30 min at 25° C. in the dark. To desalt the samples, each was transferred to a two-dram glass vial, and to the vial 4:1:2 MeOH/CHCl3/H2O (2 mL MeOH, 500 AL CHCl3, 1 mL H2O) was added. The vials were vortexed quickly, spun at 1.400×g for 3 min to pellet protein, and aqueous and organic layers were removed using a Pasteur pipette. The resulting protein pellet was transferred to a screw-top tube in 600 μL MeOH, and then CHCl3 (150 μL) and HO (600 μL) were added to extract protein a second time. The samples were vortexed quickly, centrifuged at 1,400×g to pellet protein, and the aqueous and organic layers were removed by pipetting. Resulting protein pellet was suspended in MeOH (600 μL) via sonication (3×1 sec pulse, 20% amplitude), centrifuged at 17,000×g for 5 min to pellet protein, and MeOH removed by pipetting. […]

T1 sequence (Q13574 whole entry): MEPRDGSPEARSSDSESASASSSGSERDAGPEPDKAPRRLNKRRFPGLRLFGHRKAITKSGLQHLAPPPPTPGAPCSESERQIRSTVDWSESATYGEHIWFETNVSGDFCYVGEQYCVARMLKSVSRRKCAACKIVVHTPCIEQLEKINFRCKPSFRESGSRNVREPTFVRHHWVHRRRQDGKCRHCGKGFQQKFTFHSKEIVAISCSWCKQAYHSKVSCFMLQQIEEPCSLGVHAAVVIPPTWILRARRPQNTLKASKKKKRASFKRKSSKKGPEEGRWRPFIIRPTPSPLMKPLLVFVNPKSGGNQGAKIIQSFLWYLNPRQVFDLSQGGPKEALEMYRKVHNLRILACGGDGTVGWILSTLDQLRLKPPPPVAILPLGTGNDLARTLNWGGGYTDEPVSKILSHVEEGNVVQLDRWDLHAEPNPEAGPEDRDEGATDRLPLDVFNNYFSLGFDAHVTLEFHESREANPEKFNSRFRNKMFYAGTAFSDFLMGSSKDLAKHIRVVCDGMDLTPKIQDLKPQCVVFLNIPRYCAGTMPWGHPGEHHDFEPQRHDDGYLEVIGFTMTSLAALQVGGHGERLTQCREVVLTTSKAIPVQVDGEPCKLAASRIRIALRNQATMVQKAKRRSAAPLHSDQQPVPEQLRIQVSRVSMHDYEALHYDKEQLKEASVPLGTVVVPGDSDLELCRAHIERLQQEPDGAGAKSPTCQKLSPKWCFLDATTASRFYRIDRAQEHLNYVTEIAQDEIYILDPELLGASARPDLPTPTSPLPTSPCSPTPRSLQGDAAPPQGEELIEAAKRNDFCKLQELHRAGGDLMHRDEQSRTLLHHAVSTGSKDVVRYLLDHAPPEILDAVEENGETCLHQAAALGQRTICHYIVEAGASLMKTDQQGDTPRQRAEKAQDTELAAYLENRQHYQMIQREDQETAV

O=C(c1ccc(F)cc1)C1CCN(CCn2c(=O)[nH]c3ccccc3c2=O)CC1 [Ketanserin]
SILAC ratio, DGKZ C1 probe-modified peptide: 1.3 | SILAC ratio, DGKZ DAGKa probe-modified peptide: 1.4 | SILAC ratio, DGKZ DAGKc probe-modified peptide: 1.5

Fc1ccc(C(=C2CCNCC2)c2ccc(F)cc2)cc1 [RF001, 4-(Bis(4-fluorophenyl)methylene) piperidine]
SILAC ratio, DGKZ C1 probe-modified peptide: 1.1 | SILAC ratio, DGKZ DAGKa probe-modified peptide: 1.1 | SILAC ratio, DGKZ DAGKc probe-modified peptide: 0.9

Cc1nc2sccn2c(=O)c1CCN1CCC(=C(c2ccc(F)cc2)c2ccc(F)cc2)CC1 [Ritanserin]
SILAC ratio, DGKZ C1 probe-modified peptide: 1.4 | SILAC ratio, DGKZ DAGKa probe-modified peptide: 1.8 | SILAC ratio, DGKZ DAGKc probe-modified peptide: 1.2
